Patent US10806794B2, “Protease inhibitors having enhanced features” (priority 2008, dated 2020)
Several values for one entry are separate records, joined by “and”; a condition that tells them apart may be missing. Identical values can stand only once. Like-named read-outs stand apart in the source and are kept apart here.

Assays:
in vitro [1] = conditions: human
Method: Absorption properties of various compounds were measured using bi-directional permeability assays in Caco-2 cells. […] The efflux ratio is calculated as the ratio of the Papp(B→A)/Papp(A→B).

[2] = Metabolic stability in beagle dog hepatocytes; assay type: in vitro ADME; conditions: for hepatocyte CLint at 0.1 μM: read-out: Clint ± SEM
in vitro [3] = assay type: in vitro ADME; conditions: monkey, microsomes
From the text: Metabolic stability of test compounds was studied in monkey liver microsomes.

CEM-SS cells = test: CEM-SS cytotoxicity (XTT); conditions: 7 days
Method: One day prior to assay initiation, cells were split 1:2 to assure exponential growth at the time of the assay. Cells were counted using a hemocytometer, and viability measured by Trypan Blue dye exclusion. […] CEM-SS cells were resuspended at 5×10^4 cells/mL in medium, and 100 μL of the cell suspension was aliquoted to individual wells of a 96-well microtiter plate containing 100 μL 2× concentration test compound. Plates were incubated for 7 days at 37° C., 5% CO2 until cytotoxicity evaluation.
Test compound-induced cytotoxicity was evaluated by monitoring the reduction of the tetrazolium dye XTT to a soluble formazan product in microtiter plates containing compound-treated cells in the absence of HIV-1 virus. XTT solution was prepared at 0.15 mg/mL in phosphate buffered saline. Phenazine methosulfate (PMS) solution was prepared at 0.15 mg/mL in phosphate buffered saline. A XTT/PMS stock solution was prepared immediately before use by combining 40 uL of PMS per mL of XTT solution. Fifty microliters of the XTT/PMS stock was added to each well of the microtiter plate, the plate was incubated for four hours at 37° C., and the amount of soluble formazan product was measured as the absorbance at 450 nm. Cell viability is directly proportional to the amount of soluble formazan product formed.

[4] = target: recombinant HIV-1 protease (Human immunodeficiency virus type 1 group M subtype B (isolate HXB2) (HIV-1), UniProt P04585); test: Enzyme inhibition of purified HIV-1 protease (SensoLyte 520 HIV-Protease Assay Kit); assay type: biochemical
Method: Protease inhibitors (PI) are used to treat HIV infection by preventing viral assembly and maturation through the inhibition of HIV-1 protease activity. Biochemical assays were performed to evaluate the potential of PEG-PI conjugates to inhibit HIV-1 protease activity, relative to their respective PI parent molecules. Activity assays were performed at using the SensoLyte 520 HIV-Protease Assay Kit (Anaspec Inc., San Jose, Calif.) and recombinant HIV-1 protease. Protease activity was monitored by the formation of a fluorescent reporter product generated during HIV-1 protease-mediated digestion of a quenched, fluorimetric substrate containing the p17/p24 Pr^gag cleavage site.

[5] = tested on: human liver microsomal proteins; test: Microsomal protein binding by equilibrium dialysis; assay type: in vitro ADME; conditions: human liver microsomes, 3 μM, fraction unbound
How it was run: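 Compound at 3 μM final in buffer with or without human liver microsomes, dialysed to equilibrium at 37 °C. Both sides quantified by LC-MS/MS to derive fraction unbound (Fu).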

[6] = tested on: Sprague-Dawley rat hepatocytes; test: Metabolic stability in Sprague-Dawley rat hepatocytes; assay type: in vitro ADME; conditions: 0.1 uM
PBMCs = test: Toxicity in PBMCs cultured without virus (XTT)
Method: Fresh human peripheral blood mononuclear cells (PBMCs) obtained from a commercial source were purified following centrifugation using a Ficoll-Hypaque density gradient. Viable cells were induced to proliferate in the presence of PHA-P and recombinant human IL-2 for 72 hours. […] Cell supernatant containing HIV-1 viral was incubated for 90 minutes at 37° C. with a reaction mixture containing EGTA, Triton X-100, Tris (pH 7.4), DTT, MgCl2, poly rA, oligo dT, and tritiated thymidine triphosphate (TTP). Incorporation of TTP into DNA was monitored by spotting the reaction mixture onto a DEAE filter mat, followed by washes with 5% phosphate buffer, distilled water, and 70% ethanol, and subsequent drying of the mat. […] TI was calculated as TC50/EC50.

human hepatocytes = test: Metabolic stability in cryopreserved human hepatocytes; conditions: human hepatocytes
How it was run: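 Test compounds at 0.1 μM or 3 μM incubated with cryopreserved human hepatocytes at 0.5×10^6 viable cells/mL. Sampling up to four hours (0.1 μM) or one or two hours (3 μM), methanol quench, then remaining parent measured by cassette LC-MS/MS.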

dog plasma proteins = test: Plasma protein binding by equilibrium dialysis, dog plasma; assay type: in vitro ADME; conditions: fraction unbound
Method: (§1) In assays to estimate binding of test compounds to plasma proteins, test compound solutions (5 μM) are prepared in buffer and species-specific plasma (final DMSO concentration 0.5%). The plasma-containing solution is added to one side of the membrane of an equilibrium dialysis system, and the plasma-free is added to the other side. Dialysis was allowed to reach equilibrium by incubation for two hours at 37° C. The concentration of compound on both sides of the membrane was measured using LC-MS/MS.

monkey plasma proteins = test: Plasma protein binding by equilibrium dialysis, monkey plasma; assay type: in vitro ADME; conditions: fraction unbound
Method: as §1

[7] = seven days, absence of virus, XTT

Compound: COC(=O)N[C@H](C(=O)N[C@@H](Cc1ccccc1)[C@@H](O)CN(Cc1ccc(-c2ccccn2)cc1)NC(=O)[C@@H](NC(=O)OC)C(C)(C)C)C(C)(C)C [Atazanavir, reference compound]
- Papp A→B (in vitro [1]; Caco-2, A→B, ×10^−6): 2.05 ×10⁻⁶ cm/s
- half-life at 0.1 μM [2]: 12.6 h
- hepatocyte CLint at 0.1 μM [2]: 1.83 ± 0.000561 µL/min/1e6 cells
- half-life (in vitro [3]): 0.403 h
- microsomal CLint (in vitro [3]): 42.9 µL/min/mg
- XTT (CEM-SS) TC50 (CEM-SS cells): 302100 nM
- IC50 ([4]; IC50 ± SD): 1.55 nM and 6.92 nM and 5.12 nM and 7.6 nM and 7.37 nM

Compound: CC(C)CN(C[C@@H](O)[C@H](Cc1ccccc1)NC(=O)O[C@H]1CO[C@H]2OCC[C@H]21)S(=O)(=O)c1ccc(N)cc1 [Darunavir, reference compound]
- Papp A→B (in vitro [1]; Caco-2): 2.55 ×10⁻⁶ cm/s
- XTT (CEM-SS) TC50 (CEM-SS cells): 338600 nM

Compound: COCCOCCOCCOc1ccc(C[C@H](NC(=O)O[C@H]2CO[C@H]3OCC[C@H]32)C(O)CN(CC(C)C)S(=O)(=O)c2ccc(N)cc2)cc1 (some centres unmarked) [mPEG3-O-Darunavir]
- Microsomal Protein Binding Fu ± SD [5]: 0.936 ± 0.0109
- XTT (CEM-SS) TC50 (CEM-SS cells): >400000 nM
- CLint ± SEM [6]: 28.4 ± 0.00359 μL/min/10^6 cells
- t1/2 [6]: 0.813 h
- PBMC TC50 ± SD (PBMCs; [7]): >200000 nM

Compound: COCCOCCOCCOCCOCCNc1ccc(S(=O)(=O)N(CC(C)C)CC(O)[C@H](Cc2ccccc2)NC(=O)O[C@H]2CO[C@H]3OCC[C@H]32)cc1 (some centres unmarked) [mPEG5-N-Darunavir]
- Microsomal Protein Binding Fu ± SD [5]: 0.864 ± 0.011
- CLint ± SEM (human hepatocytes; 0.1 uM, up to four hours): 3.94 ± 0.386 μL/min/10^6 cells
- t1/2 (human hepatocytes; 0.1 uM, up to four hours): 5.87 h
- CLint ± SEM (human hepatocytes; 3 uM, incubated up to one hour): 11.9 ± 1.40 μL/min/10^6 cells

Compound: COCCOCCOCCOCCOCCOc1ccc(C[C@H](NC(=O)O[C@H]2CO[C@H]3OCC[C@H]32)C(O)CN(CC(C)C)S(=O)(=O)c2ccc(N)cc2)cc1 (some centres unmarked) [mPEG5-O-Darunavir]
- Microsomal Protein Binding Fu ± SD [5]: 0.804 ± 0.253
- XTT (CEM-SS) TC50 (CEM-SS cells): >400000 nM
- CLint ± SEM [6]: 37.0 ± 0.00425 μL/min/10^6 cells
- t1/2 [6]: 0.625 h
- PBMC TC50 ± SD (PBMCs; [7]): >200000 nM

Compound: COCCOCCOCCOCCOCCOCCOCCNc1ccc(S(=O)(=O)N(CC(C)C)CC(O)[C@H](Cc2ccccc2)NC(=O)O[C@H]2CO[C@H]3OCC[C@H]32)cc1 (some centres unmarked) [mPEG7-N-Darunavir]
- Microsomal Protein Binding Fu ± SD [5]: 0.973 ± 0.0139
- PBMC TC50 ± SD (PBMCs; [7]): >200000 nM
- CLint ± SEM (human hepatocytes; 3 uM, incubated up to one hour): 5.13 ± 0.611 μL/min/10^6 cells

Compound: COCCOC(=O)NC(C(=O)NC(Cc1ccccc1)C(O)CN(Cc1ccc(-c2ccccn2)cc1)NC(=O)C(NC(=O)OC)C(C)(C)C)C(C)(C)C (centres unmarked) [mono-mPEG1-Atazanavir]
- Dog Plasma Protein Binding Fu ± SD (dog plasma proteins): 0.208 ± 0.0317
- CLint ± SEM [6]: 82.5 ± 0.0100 μL/min/10^6 cells
- t1/2 [6]: 0.28 h
- PBMC TC50 ± SD (PBMCs): 135900 nM
- IC50 ([4]; read-out: IC50 ± SD): 2.82 nM
- CLint ± SEM (human hepatocytes; 0.1 uM, up to four hours): 15.3 ± 0.00173 μL/min/10^6 cells
- t1/2 (human hepatocytes; 0.1 uM, up to four hours): 1.51 h
- Monkey Plasma Protein Binding Fu ± SD (monkey plasma proteins): 0.246 ± 0.0239

Compound: COCCOCCOCCOC(=O)NC(C(=O)NC(Cc1ccccc1)C(O)CN(Cc1ccc(-c2ccccn2)cc1)NC(=O)C(NC(=O)OC)C(C)(C)C)C(C)(C)C (centres unmarked) [mono-mPEG3-Atazanavir, {1-[N′-[2-Hydroxy-3-(2-{2-[2-(2-methoxy-ethoxy)-ethoxy]-ethoxycarbonylamino}-3,3-dimethyl-butyrylamino)-4-phenyl-butyl]-N′-(4-pyridin-2-yl-benzyl)-hydrazinocarbonyl]-2,2-dimethyl-propyl}-carbamic Acid Methyl Ester]
- efflux ratio (in vitro [1]; Caco-2): 44
- Papp A→B (in vitro [1]; Caco-2, A→B, ×10^−6): 0.53 ×10⁻⁶ cm/s
- half-life at 0.1 μM [2]: 1.43 h
- hepatocyte CLint at 0.1 μM [2]: 16.1 ± 0.000914 µL/min/1e6 cells
- half-life (in vitro [3]): 0.447 h
- microsomal CLint (in vitro [3]): 249 µL/min/mg
- XTT (CEM-SS) TC50 (CEM-SS cells): >400000 nM

Compound: COCCOCCOCCOCCOCCOC(=O)NC(C(=O)NC(Cc1ccccc1)C(O)CN(Cc1ccc(-c2ccccn2)cc1)NC(=O)C(NC(=O)OC)C(C)(C)C)C(C)(C)C (centres unmarked) [mono-mPEG5-Atazanavir]
- Dog Plasma Protein Binding Fu ± SD (dog plasma proteins): 0.695 ± 0.118
- Clint (in vitro [3]): 175 μL/min/mg protein
- t½ (in vitro [3]): 0.96 h
- IC50 ([4]; read-out: IC50 ± SD): 2.91 nM
- CLint ± SEM (human hepatocytes; 0.1 uM, up to four hours): 3.98 ± 0.000356 μL/min/10^6 cells
- t1/2 (human hepatocytes; 0.1 uM, up to four hours): 5.8 h
- Monkey Plasma Protein Binding Fu ± SD (monkey plasma proteins): 0.383 ± 0.359

Compound: COCCOCCOCCOCCOCCOCCOC(=O)NC(C(=O)NC(Cc1ccccc1)C(O)CN(Cc1ccc(-c2ccccn2)cc1)NC(=O)C(NC(=O)OC)C(C)(C)C)C(C)(C)C (centres unmarked) [mono-mPEG6-Atazanavir]
- Dog Plasma Protein Binding Fu ± SD (dog plasma proteins): 0.497 ± 0.0386
- Clint (in vitro [3]): 238 μL/min/mg protein
- t½ (in vitro [3]): 1.73 h
- IC50 ([4]; read-out: IC50 ± SD): 1.31 nM
- CLint ± SEM (human hepatocytes; 0.1 uM, up to four hours): 0.778 ± 0.000211 μL/min/10^6 cells
- t1/2 (human hepatocytes; 0.1 uM, up to four hours): 29.68 h
- Monkey Plasma Protein Binding Fu ± SD (monkey plasma proteins): 0.598 ± 0.00839

Compound: COCCOCCOCCOCCOCCOCCOCCOC(=O)NC(C(=O)NC(Cc1ccccc1)C(O)CN(Cc1ccc(-c2ccccn2)cc1)NC(=O)C(NC(=O)OC)C(C)(C)C)C(C)(C)C (centres unmarked) [mono-mPEG7-Atazanavir]
- Dog Plasma Protein Binding Fu ± SD (dog plasma proteins): 0.306 ± 0.0478
- PBMC TC50 ± SD (PBMCs): 187200 nM
- IC50 ([4]; read-out: IC50 ± SD): 1.29 nM
- Monkey Plasma Protein Binding Fu ± SD (monkey plasma proteins): 0.570 ± 0.0439
